Laboratory results: paper PMC12586182 (Frontiers in Oncology, 2025)

Key:
Experiment in all cases: Kinase panel profiling at 1 µmol/L (mobility shift assay, Carna)
Format in all cases: biochemical
Details in all cases: 1 µmol/L of BTK inhibitor
FGR = target: T1, FGR (Homo sapiens, UniProt P09769)
T1 construct: purchased Carna Biosciences

JAK2 = target: T2, JAK2 (Homo sapiens, UniProt O60674)
T2 construct: purchased Carna Biosciences

TRKC = target: T3, TRKC (Homo sapiens, UniProt Q16288)
T3 construct: purchased Carna Biosciences

HIPK3 = target: T4, HIPK3 (Homo sapiens, UniProt Q9H422)
T4 construct: purchased Carna Biosciences

IKKα = target: T5, IKKα (Homo sapiens, UniProt O15111)
T5 construct: purchased Carna Biosciences
T5 sequence (O15111 1-745): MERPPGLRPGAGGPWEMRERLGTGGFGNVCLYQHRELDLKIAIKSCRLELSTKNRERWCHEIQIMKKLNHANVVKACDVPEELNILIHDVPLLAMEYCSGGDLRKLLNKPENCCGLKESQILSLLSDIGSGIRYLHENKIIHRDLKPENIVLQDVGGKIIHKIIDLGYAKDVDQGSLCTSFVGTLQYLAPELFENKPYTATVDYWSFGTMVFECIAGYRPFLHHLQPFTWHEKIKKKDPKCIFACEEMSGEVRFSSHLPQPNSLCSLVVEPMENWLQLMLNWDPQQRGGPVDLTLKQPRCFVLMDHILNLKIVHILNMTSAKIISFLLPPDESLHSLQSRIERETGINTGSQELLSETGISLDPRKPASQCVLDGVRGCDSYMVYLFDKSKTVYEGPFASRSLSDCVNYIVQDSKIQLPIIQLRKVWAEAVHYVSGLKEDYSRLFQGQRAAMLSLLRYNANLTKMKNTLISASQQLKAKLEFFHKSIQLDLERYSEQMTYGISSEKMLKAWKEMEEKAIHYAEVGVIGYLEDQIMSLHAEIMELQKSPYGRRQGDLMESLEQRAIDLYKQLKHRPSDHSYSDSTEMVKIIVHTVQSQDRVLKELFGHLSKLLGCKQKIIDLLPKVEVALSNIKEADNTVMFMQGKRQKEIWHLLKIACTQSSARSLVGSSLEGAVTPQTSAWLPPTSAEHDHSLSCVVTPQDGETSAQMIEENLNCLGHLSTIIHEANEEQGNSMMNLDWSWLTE

MAPKAPK3 = target: T6, MAPKAPK3 (Homo sapiens, UniProt Q16644)
T6 construct: purchased Carna Biosciences

MST2 = target: T7, MST2 (Homo sapiens, UniProt Q13188)
T7 construct: purchased Carna Biosciences
T7 sequence (Q13188 1-491): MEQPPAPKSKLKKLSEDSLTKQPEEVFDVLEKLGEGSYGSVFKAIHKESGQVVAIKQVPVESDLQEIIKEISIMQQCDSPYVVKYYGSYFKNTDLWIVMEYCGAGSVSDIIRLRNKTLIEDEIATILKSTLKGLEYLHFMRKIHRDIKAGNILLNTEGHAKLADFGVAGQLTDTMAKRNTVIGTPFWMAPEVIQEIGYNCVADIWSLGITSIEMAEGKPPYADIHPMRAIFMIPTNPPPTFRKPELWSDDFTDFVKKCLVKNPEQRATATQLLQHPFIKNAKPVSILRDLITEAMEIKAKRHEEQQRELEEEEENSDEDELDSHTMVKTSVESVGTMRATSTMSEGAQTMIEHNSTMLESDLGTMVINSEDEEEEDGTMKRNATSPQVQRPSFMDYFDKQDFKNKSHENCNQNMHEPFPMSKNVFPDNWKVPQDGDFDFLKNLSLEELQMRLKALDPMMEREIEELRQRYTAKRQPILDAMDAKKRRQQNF

PIM3 = target: T8, PIM3 (Homo sapiens, UniProt Q86V86)
T8 construct: purchased Carna Biosciences

PKCε = target: T9, PKCε (Homo sapiens, UniProt Q02156)
T9 construct: purchased Carna Biosciences
T9 sequence (Q02156 1-737): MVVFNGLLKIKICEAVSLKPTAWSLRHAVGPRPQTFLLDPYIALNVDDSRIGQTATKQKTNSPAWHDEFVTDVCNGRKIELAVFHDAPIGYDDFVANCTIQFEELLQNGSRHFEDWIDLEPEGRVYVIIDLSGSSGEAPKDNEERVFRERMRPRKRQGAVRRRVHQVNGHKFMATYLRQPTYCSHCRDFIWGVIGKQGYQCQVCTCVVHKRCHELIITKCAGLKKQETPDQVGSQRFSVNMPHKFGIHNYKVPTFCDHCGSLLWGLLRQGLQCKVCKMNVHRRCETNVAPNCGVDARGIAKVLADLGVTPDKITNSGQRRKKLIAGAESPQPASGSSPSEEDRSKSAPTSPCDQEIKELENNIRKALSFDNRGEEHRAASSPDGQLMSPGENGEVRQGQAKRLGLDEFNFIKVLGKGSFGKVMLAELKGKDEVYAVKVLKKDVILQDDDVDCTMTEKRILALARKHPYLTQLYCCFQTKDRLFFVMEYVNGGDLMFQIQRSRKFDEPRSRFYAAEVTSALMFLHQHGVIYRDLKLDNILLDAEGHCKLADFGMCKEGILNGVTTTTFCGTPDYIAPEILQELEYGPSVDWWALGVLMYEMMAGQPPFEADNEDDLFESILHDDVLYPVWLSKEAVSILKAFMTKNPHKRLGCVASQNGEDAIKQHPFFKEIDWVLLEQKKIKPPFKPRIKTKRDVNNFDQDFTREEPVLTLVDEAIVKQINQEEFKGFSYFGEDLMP

T4 sequence (Q9H422 whole entry): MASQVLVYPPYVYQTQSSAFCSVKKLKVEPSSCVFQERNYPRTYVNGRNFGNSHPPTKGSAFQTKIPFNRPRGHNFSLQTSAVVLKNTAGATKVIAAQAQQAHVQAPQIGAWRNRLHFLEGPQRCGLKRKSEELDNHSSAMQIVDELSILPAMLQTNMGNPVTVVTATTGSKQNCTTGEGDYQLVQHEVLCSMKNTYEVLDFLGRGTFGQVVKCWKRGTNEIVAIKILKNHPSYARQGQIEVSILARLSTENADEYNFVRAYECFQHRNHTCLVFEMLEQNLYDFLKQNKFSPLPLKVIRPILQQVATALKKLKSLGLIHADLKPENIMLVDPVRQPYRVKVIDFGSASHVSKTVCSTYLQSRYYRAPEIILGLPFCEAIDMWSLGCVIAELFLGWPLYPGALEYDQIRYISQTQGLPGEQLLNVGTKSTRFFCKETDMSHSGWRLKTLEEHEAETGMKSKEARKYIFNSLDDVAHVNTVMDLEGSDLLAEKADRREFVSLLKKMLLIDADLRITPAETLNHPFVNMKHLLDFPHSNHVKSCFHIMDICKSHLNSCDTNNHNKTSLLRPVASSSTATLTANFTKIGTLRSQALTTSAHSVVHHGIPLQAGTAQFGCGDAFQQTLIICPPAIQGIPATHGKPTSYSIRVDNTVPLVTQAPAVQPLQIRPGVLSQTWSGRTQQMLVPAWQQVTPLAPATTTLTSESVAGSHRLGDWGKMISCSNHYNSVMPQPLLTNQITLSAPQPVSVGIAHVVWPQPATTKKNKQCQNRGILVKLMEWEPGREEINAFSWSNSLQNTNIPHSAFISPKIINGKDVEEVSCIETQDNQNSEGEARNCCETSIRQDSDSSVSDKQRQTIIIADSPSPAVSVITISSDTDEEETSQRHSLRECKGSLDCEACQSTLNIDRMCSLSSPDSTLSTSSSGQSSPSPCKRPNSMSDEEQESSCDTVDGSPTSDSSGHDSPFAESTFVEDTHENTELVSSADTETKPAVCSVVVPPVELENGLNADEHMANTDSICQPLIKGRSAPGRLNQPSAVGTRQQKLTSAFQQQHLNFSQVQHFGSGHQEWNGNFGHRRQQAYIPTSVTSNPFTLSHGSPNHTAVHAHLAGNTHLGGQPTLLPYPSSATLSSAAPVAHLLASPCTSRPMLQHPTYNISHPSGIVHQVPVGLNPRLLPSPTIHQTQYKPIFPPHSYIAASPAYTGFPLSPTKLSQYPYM
T6 sequence (Q16644 whole entry): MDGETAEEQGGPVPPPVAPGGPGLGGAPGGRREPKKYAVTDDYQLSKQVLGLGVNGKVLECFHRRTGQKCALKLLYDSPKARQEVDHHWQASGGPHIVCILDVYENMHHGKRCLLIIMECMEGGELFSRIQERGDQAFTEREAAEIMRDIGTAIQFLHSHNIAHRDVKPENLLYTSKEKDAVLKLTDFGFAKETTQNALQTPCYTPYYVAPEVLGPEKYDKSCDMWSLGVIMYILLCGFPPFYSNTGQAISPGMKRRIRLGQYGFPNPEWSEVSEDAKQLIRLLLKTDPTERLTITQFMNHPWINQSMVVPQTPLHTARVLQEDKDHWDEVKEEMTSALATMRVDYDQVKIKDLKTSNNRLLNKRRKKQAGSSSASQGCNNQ
T2 sequence (O60674 whole entry): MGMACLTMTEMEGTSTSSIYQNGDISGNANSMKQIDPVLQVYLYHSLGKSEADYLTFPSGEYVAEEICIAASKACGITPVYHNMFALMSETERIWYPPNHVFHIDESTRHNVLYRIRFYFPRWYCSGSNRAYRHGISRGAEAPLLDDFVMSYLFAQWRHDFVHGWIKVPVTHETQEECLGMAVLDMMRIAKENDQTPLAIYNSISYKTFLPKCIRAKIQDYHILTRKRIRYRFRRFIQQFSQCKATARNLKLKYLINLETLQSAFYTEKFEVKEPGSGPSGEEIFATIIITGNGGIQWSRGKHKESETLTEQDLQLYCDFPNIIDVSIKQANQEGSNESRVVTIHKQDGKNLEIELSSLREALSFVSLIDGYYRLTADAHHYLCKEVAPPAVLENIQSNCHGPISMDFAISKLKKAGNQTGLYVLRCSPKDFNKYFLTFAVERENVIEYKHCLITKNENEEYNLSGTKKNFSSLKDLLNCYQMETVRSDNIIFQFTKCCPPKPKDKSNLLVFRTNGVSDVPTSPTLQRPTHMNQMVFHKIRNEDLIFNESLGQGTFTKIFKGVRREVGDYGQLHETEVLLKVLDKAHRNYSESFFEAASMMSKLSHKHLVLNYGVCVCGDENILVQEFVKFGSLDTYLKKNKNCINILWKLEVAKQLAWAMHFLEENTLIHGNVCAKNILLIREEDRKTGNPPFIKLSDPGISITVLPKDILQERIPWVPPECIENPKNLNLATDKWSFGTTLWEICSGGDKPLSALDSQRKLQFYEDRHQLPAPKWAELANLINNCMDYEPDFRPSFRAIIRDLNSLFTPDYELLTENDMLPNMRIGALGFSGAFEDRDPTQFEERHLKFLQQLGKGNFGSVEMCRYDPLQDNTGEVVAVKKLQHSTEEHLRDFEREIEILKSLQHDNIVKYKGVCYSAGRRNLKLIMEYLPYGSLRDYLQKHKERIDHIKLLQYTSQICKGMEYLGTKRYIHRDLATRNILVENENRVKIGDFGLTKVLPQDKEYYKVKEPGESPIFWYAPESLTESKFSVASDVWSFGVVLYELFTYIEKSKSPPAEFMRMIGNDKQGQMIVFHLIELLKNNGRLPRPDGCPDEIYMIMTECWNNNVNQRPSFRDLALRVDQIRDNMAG
T1 sequence (P09769 whole entry): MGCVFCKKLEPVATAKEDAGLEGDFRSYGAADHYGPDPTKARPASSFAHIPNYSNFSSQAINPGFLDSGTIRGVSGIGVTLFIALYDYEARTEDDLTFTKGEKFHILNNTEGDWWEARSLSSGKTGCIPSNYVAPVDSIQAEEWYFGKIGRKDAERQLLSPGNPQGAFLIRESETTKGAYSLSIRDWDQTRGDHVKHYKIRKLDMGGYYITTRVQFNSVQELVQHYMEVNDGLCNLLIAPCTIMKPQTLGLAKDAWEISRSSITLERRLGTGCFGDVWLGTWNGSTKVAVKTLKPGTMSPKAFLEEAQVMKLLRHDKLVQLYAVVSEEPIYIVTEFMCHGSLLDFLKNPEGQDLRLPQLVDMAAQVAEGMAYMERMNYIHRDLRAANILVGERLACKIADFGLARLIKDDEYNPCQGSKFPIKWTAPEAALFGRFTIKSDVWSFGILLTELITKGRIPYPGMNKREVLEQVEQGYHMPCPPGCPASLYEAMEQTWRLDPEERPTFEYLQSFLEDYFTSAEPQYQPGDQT
T3 sequence (Q16288 32-839): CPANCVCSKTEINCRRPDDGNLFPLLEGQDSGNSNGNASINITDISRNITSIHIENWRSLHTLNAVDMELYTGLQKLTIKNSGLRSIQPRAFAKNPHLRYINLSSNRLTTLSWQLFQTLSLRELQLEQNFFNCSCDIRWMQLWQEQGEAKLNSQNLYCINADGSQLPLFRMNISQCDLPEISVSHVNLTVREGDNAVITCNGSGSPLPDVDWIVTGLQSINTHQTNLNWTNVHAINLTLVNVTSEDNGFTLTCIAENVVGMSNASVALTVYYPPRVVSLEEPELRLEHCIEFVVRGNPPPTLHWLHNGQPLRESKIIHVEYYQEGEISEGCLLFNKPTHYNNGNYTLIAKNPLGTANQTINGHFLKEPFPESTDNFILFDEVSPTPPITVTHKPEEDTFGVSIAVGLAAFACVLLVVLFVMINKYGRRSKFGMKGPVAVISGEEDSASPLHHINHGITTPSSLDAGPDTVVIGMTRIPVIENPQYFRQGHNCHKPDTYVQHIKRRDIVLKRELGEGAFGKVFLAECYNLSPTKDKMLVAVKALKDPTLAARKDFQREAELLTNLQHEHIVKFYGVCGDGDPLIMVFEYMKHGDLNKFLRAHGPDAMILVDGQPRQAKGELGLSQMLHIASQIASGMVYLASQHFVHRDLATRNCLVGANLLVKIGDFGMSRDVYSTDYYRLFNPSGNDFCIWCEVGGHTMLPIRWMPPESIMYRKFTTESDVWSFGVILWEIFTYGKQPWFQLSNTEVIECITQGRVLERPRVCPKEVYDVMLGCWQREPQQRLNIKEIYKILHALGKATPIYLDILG

| SMILES | Percentage inhibition of kinase enzyme activity (FGR) [%] | Percentage inhibition of kinase enzyme activity (JAK2) [%] | Percentage inhibition of kinase enzyme activity (TRKC) [%] | Percentage inhibition of kinase enzyme activity (HIPK3) [%] | Percentage inhibition of kinase enzyme activity (IKKα) [%] | Percentage inhibition of kinase enzyme activity (MAPKAPK3) [%] | Percentage inhibition of kinase enzyme activity (MST2) [%] | Percentage inhibition of kinase enzyme activity (PIM3) [%] | Percentage inhibition of kinase enzyme activity (PKCε) [%] |
| --- | --- | --- | --- | --- | --- | --- | --- | --- | --- |
| CC#CC(=O)N1CCC[C@H]1c1nc(-c2ccc(C(=O)Nc3ccccn3)cc2)c2c(N)nccn12 [acalabrutinib] | 2.91 | -9.14 | 11.12 | -12.04 | -1.45 | -11.15 | -3.46 | -0.0376 | -8.62 |
| C=CC(=O)N1CCC[C@@H](n2nc(-c3ccc(Oc4ccccc4)cc3)c3c(N)ncnc32)C1 [ibrutinib] | 99.02 | 0.41 | 23.90 | 1.67 | 4.34 | -6.50 | 16.65 | -0.24 | 7.63 |
| O=C(c1ccc(Oc2ccccc2)cc1Cl)c1c[nH]c2ncnc(N[C@@H]3CC[C@@H](CO)OC3)c12 [nemtabrutinib] | 90.23 | 14.34 | 99.56 | 5.34 | 1.80 | -15.88 | 86.96 | -5.55 | 12.58 |
| COc1ccc(F)cc1C(=O)NCc1ccc(-c2nn([C@@H](C)C(F)(F)F)c(N)c2C(N)=O)cc1 [pirtobrutinib] | 18.17 | 0.45 | 5.23 | 3.06 | -16.22 | -18.63 | 6.74 | 1.44 | 18.12 |
| C=CC(=O)N1CCC([C@@H]2CCNc3c(C(N)=O)c(-c4ccc(Oc5ccccc5)cc4)nn32)CC1 [zanubrutinib] | 2.22 | 9.66 |  |  | -9.91 | -12.22 |  |  |  |
